Data from PubChem BioAssay AID2060512 (Molecular Pharmacology Branch, DTP, NCI, 2025).

Test system: 186277-243-T-J2-PDC complex spheroid viability
Test: Anticancer human tumor 186277-243-T-J2-PDC patient-derived colon adenocarcinoma cell line growth inhibition [GQUAD]
Settings: for IC50: curve of first compound; for viability, T/C: stronger effect = lower value
In short: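 Multi-cell-type spheroids of tumor cells with HUVEC and mesenchymal stem cells, treated with drug combinations. Concentrations descend in half-log steps from near clinical Cmax, or from 10 microM where Cmax is unknown; viability read-out.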

[1] = second compound 0.0316 µM, first compound 0.0316 µM
[2] = second compound 0.0316 µM, first compound 0.316 µM
[3] = second compound 0.1 µM, first compound 0.0316 µM
[4] = second compound 0.1 µM, first compound 0.316 µM
[5] = second compound 0.316 µM, first compound 0.0316 µM
[6] = second compound 0.316 µM, first compound 0.316 µM
[7] = second compound 1 µM, first compound 0.0316 µM
[8] = second compound 1 µM, first compound 0.316 µM
[9] = second compound 3.16 µM, first compound 0.0316 µM
[10] = second compound 3.16 µM, first compound 0.316 µM
[11] = second compound 10 µM, first compound 0.0316 µM
[12] = second compound 10 µM, first compound 0.316 µM
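Note: spheroids exposed to drugs for 7 days.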
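Throughout, for viability, T/C: 100% = DMSO vehicle control viability.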

Cc1cccc(N(C)C(=O)C2C(O)CCN2c2nc(C)cc(C(F)(F)F)c2C#N)c1 (centres undefined) + Cc1cnc(CNC(=O)c2c(=O)c3ccc(N4CCCN(C)CC4)nc3n3c2sc2ccccc23)cn1
IC50 (second compound 0.0316 µM): > 10 µM | IC50 (second compound 0.1 µM): > 10 µM | IC50 (second compound 0.316 µM): > 10 µM | IC50 (second compound 1 µM): > 10 µM | IC50 (second compound 3.16 µM): < 0.0316 µM | IC50 (second compound 10 µM): < 0.0316 µM | viability, T/C [1]: 107% | viability, T/C (second compound 0.0316 µM, first compound 0.1 µM): 110% | viability, T/C [2]: 109% | viability, T/C (second compound 0.0316 µM, first compound 1 µM): 100% | viability, T/C (second compound 0.0316 µM, first compound 3.16 µM): 102% | viability, T/C (second compound 0.0316 µM, first compound 10 µM): 117% | viability, T/C [3]: 92.8% | viability, T/C (second compound 0.1 µM, first compound 0.1 µM): 93.3% | viability, T/C [4]: 97.4% | viability, T/C (second compound 0.1 µM, first compound 1 µM): 105% | viability, T/C (second compound 0.1 µM, first compound 3.16 µM): 94.8% | viability, T/C (second compound 0.1 µM, first compound 10 µM): 78.8% | viability, T/C [5]: 73% | viability, T/C (second compound 0.316 µM, first compound 0.1 µM): 84.1% | viability, T/C [6]: 75.1% | viability, T/C (second compound 0.316 µM, first compound 1 µM): 71.7% | viability, T/C (second compound 0.316 µM, first compound 3.16 µM): 76.6% | viability, T/C (second compound 0.316 µM, first compound 10 µM): 88.5% | viability, T/C [7]: 51.6% | viability, T/C (second compound 1 µM, first compound 0.1 µM): 70.4% | viability, T/C [8]: 68.6% | viability, T/C (second compound 1 µM, first compound 1 µM): 59.5% | viability, T/C (second compound 1 µM, first compound 3.16 µM): 64.9% | viability, T/C (second compound 1 µM, first compound 10 µM): 65% | viability, T/C [9]: 42.2% | viability, T/C (second compound 3.16 µM, first compound 0.1 µM): 52.2% | viability, T/C [10]: 47.9% | viability, T/C (second compound 3.16 µM, first compound 1 µM): 47.1% | viability, T/C (second compound 3.16 µM, first compound 3.16 µM): 52.9% | viability, T/C (second compound 3.16 µM, first compound 10 µM): 51.9% | viability, T/C [11]: 45.3% | viability, T/C (second compound 10 µM, first compound 0.1 µM): 45.9% | viability, T/C [12]: 38% | viability, T/C (second compound 10 µM, first compound 1 µM): 41.6% | viability, T/C (second compound 10 µM, first compound 3.16 µM): 53.1% | viability, T/C (second compound 10 µM, first compound 10 µM): 51.4%

Cn1ncnc1[C@H]1c2n[nH]c(=O)c3cc(F)cc(c23)N[C@@H]1c1ccc(F)cc1 + Cc1cnc(CNC(=O)c2c(=O)c3ccc(N4CCCN(C)CC4)nc3n3c2sc2ccccc23)cn1
IC50 (second compound 0.0316 µM): > 0.316 µM | IC50 (second compound 0.1 µM): > 0.316 µM | IC50 (second compound 0.316 µM): > 0.316 µM | IC50 (second compound 1 µM): > 0.316 µM | IC50 (second compound 3.16 µM): > 0.316 µM | IC50 (second compound 10 µM): < 0.000999 µM | viability, T/C (second compound 0.0316 µM, first compound 0.000999 µM): 107% | viability, T/C (second compound 0.0316 µM, first compound 0.00316 µM): 101% | viability, T/C (second compound 0.0316 µM, first compound 0.00999 µM): 108% | viability, T/C [1]: 78.6% | viability, T/C (second compound 0.0316 µM, first compound 0.0999 µM): 85.2% | viability, T/C [2]: 78.2% | viability, T/C (second compound 0.1 µM, first compound 0.000999 µM): 102% | viability, T/C (second compound 0.1 µM, first compound 0.00316 µM): 103% | viability, T/C (second compound 0.1 µM, first compound 0.00999 µM): 84.3% | viability, T/C [3]: 94.8% | viability, T/C (second compound 0.1 µM, first compound 0.0999 µM): 85.5% | viability, T/C [4]: 71.6% | viability, T/C (second compound 0.316 µM, first compound 0.000999 µM): 75.7% | viability, T/C (second compound 0.316 µM, first compound 0.00316 µM): 79.2% | viability, T/C (second compound 0.316 µM, first compound 0.00999 µM): 80.1% | viability, T/C [5]: 77% | viability, T/C (second compound 0.316 µM, first compound 0.0999 µM): 73.1% | viability, T/C [6]: 70.3% | viability, T/C (second compound 1 µM, first compound 0.000999 µM): 65.6% | viability, T/C (second compound 1 µM, first compound 0.00316 µM): 57.3% | viability, T/C (second compound 1 µM, first compound 0.00999 µM): 59.2% | viability, T/C [7]: 59.4% | viability, T/C (second compound 1 µM, first compound 0.0999 µM): 62.5% | viability, T/C [8]: 52.8% | viability, T/C (second compound 3.16 µM, first compound 0.000999 µM): 48.1% | viability, T/C (second compound 3.16 µM, first compound 0.00316 µM): 55.6% | viability, T/C (second compound 3.16 µM, first compound 0.00999 µM): 52.5% | viability, T/C [9]: 51.4% | viability, T/C (second compound 3.16 µM, first compound 0.0999 µM): 54% | viability, T/C [10]: 48.7% | viability, T/C (second compound 10 µM, first compound 0.000999 µM): 46% | viability, T/C (second compound 10 µM, first compound 0.00316 µM): 42.1% | viability, T/C (second compound 10 µM, first compound 0.00999 µM): 43.4% | viability, T/C [11]: 46.9% | viability, T/C (second compound 10 µM, first compound 0.0999 µM): 55.7% | viability, T/C [12]: 42.5%
